Experimental data: patent US7282215B2, “Supports for photosensitizer formulations” (The University of British Columbia, priority 2000, dated 2007)

Test: pH studies of copolymer formulations
Format: physicochemical
Settings: acidification
Description: Counteracting the oily nature of P123 could be achieved by incorporation of copolymer that is in solid form at room temperature. The use of 1% w/w F127 with 9% w/v P123 instead of 10% P123 (w/v) produced a thin film, which was more readily hydrated. […] This necessitates hydration of the solid drug-polymer with a very mild buffer to counteract acidification which occurs upon use of sterile packed distilled water as commonly practiced in clinical settings. Behavior of poloxamers is unaffected by pH, and the use of buffers would be entirely dependent on ionizable groups present on the drug substance.

## C=Cc1c(C)c2cc3nc(cc4[nH]c(cc5nc(cc1[nH]2)C1(C)C5=CC=C(C(=O)O)C1C(=O)OC)c(C)c4CCC(=O)OC)C(CCC(=O)OC)=C3C (stereo not shown) [B-B3]
  pH dependency of formulation stability: detrimental to formulation stability
